Results published in patent US11266664B2, “Use of homosalate and octyl salicylate to treat multiple sclerosis” (Wisconsin Alumni Research Foundation, priority 2016, dated 2022).
Entries after “also recorded” stand apart in the source; their conditions may differ.

Experiments:
[1] = system: EAE mice; assay: MOG35-55-induced EAE in mice, daily clinical score (0-5); assay type: in vivo; conditions: for Suppression of EAE (mean clinical score) by sunscreen ingredients: topical daily day 0-30, amount equal to that in the sunscreen: homosalate 1.5 g/kg, octisalate 0.5 g/kg, 12% avobenzone, 16% oxybenzone in 25 μl DMSO; for Mean Severity / CDI / Day of onset: as E1, mean ± SD; for Mean Severity: clinical score 0-5 averaged over the entire experiment; for CDI: clinical scores summed per animal, divided by mice per group; for Effective topical dose in a mouse model: daily; for Dose dependence of EAE suppression: topical 10, 20 and 30 μl or 0.5, 1.0, 1.5 g/kg (FIG. 8A); for Incidence: topical daily day 0-30, homosalate 30 μl (1.5 g/kg), octisalate 10 μl (0.5 g/kg), sunscreen spray 200 μl, N=11-12, * P<0.05 vs Control; for Suppression of EAE at 1.5 g/kg: topical, ca 1.5 g/kg
Experimental: Animals and Diet. Female C57BL/6 mice (8-9 weeks old) purchased from Jackson Laboratory were fed a standard lab diet chow 5008 (Purina Mills, Richmond, Ind.) and maintained in the Department of Biochemistry's vivarium. The mice were exposed to 12 h light-dark cycles. All procedures were approved by the Research Animal Resources Committee of the College of Agricultural & Life Sciences, University of Wisconsin-Madison. The mice were randomly divided into groups for different treatment (12 mice/group).
Mice were shaved on their back to receive sunscreen or NBUVB radiation. The following Sunscreen cream or spray was used in our study (See Appendix A): 1. Coppertone spray (SPF 50, MSD Consumer Care, Inc., Memphis, Tenn.); 2. Coppertone water babies (SPF 50, MSD Consumer Care, Inc., Memphis, Tenn.); 3. Hawaiian Tropic (SPF 50, Energizer Personal Care, LLC, Shelton, Conn.); 4. Kiss my face (SPF 50, Kiss My Face, LLC, Gardiner, N.Y.); 5. Blue Lizard Australian Sunscreen (SPF 30, Crown Laboratories, Johnson, Tenn.); 6. Banana Boat Kids (SPF 50, Energizer Personal Care, LLC, Shelton, Conn.); 7. CoTZ Face (SPF40, CoTZ Skincare, West Norriton, Pa.). The sunscreen was applied manually to cover the shaved skin daily depending on the experimental schedule. Four main active ingredients (avobenzone; oxibenzone; homosalate; octyl salicylate) were purchased from Spectrum Chemical MFG. Corp. (New Brunswick, N.J.). The total dose of each ingredient administrated topically on each mouse skin was equal to the amount of the ingredient in the sunscreen.
In this experiment, mice were immunized with myelin oligodendrocyte glycoprotein peptide (MOG)35-55. MOG35-55 kit (EK-2110) was purchased from Hooke lab (Lawrence, Mass.). Each mouse was immunized with subcutaneous injection of 20 μl MOG35-55/CFA emulsion and intraperitoneally injection with 200 ng of pertussis toxin (List Biological Laboratories) diluted in sterile PBS. The second booster pertussis toxin injection was given 48 hours later. Each mouse was scored daily for clinical signs of EAE using the following scale: 0, no clinical disease; 1, loss of tail tone; 2, unsteady gait; 3, hind limb paralysis; 4, forelimb paralysis; 5, death.
Onset was calculated by averaging the first day when clinical signs appeared and continued for at least 2 days. Mean severity was determined by averaging the clinical scores during the entire experiment. The CDI (clinical disease index) was calculated by summing the clinical scores in each animal and divided by the number of mice per group. Statistical analyses were performed using the two-tailed Fisher exact probability test for incidence, the Mann-Whitney nonparametric u test for clinical scores, and the unpaired Student t test for all other measurements. A value of P<0.05 was considered statistically significant.
Female C57BL/6 mice (8-10 weeks old) purchased from Jackson Laboratory (Bar Harbor, Me.) were fed a standard lab chow 5008 (Purina Mills, Richmond, Ind.). The mice were exposed to 12 h light-dark cycles. In one experiment the animals were kept in darkness at all times. All procedures were approved by the Institutional Animal Care and Use Committee of the College of Agricultural & Life Sciences, University of Wisconsin-Madison.
Mice were immunized with MOG35-55 kit (EK-2110, purchased from Hooke lab (Lawrence, Mass.)). Each mouse was immunized with a subcutaneous injection of 20 μl MOG35-55/CFA emulsion and an intraperitoneal injection with 200 ng of pertussis toxin (List Biological Laboratories) diluted in sterile PBS (14). A second booster pertussis toxin injection was given 48 hours later. Each mouse was scored daily for clinical signs of EAE using the following scale: 0, no clinical disease; 1, loss of tail tone; 2, unsteady gait; 3, hindlimb paralysis; 4, forelimb paralysis; 5, death (15).
Sunscreen creams or spray applied topically to the shaved back skin of the mice daily are shown below (Table 2): 1. […]

[2] = Body weight of EAE mice, weighed weekly; assay type: in vivo; conditions: for Body weight of EAE mice given sunscreen ingredients: topical daily day 0-30, amount equal to that in the sunscreen; for Body weight at three doses: topical 0.5, 1.0, 1.5 g/kg, all treatments except homosalate 0.5 g/kg (FIG. 8B)
Experimental: Referring to FIGS. 2A and 2B, we analyzed different sunscreen ingredients. […] Mice were treated with ingredients (avobenzone, oxybenzone or combination) of sunscreen by topical administration daily during EAE (day 0-day 30). Sunscreen spray 200 μl was also used as a positive control. Each mouse was scored daily and weighed weekly during the experiment (30 days). Data are expressed as mean value, N=10-12/group.
Mice were treated with ingredients (homosalate, octyl salicylate or combination) of sunscreen by topical administration daily during EAE (day 0-day 30). Sunscreen spray 200 μl daily was used as a positive control. Mice were scored daily and weighed weekly. Data were expressed as mean value, N=10-12/group.

[3] = Adverse effects of topical application; assay type: in vivo, mice
[4] = system: MS; conditions: studied in 1961, reference 9; cited from earlier work
[5] = system: rabbits; conditions: unpublished; cited from earlier work
[6] = system: ear edema; conditions: ear edema test in mice, reference 7; cited from earlier work

Structure (SMILES)	Suppression of EAE (mean clinical score) by sunscreen ingredients [1]	Body weight of EAE mice given sunscreen ingredients [2]	Mean Severity [1]	CDI [1]	Day of onset [1]	Effective topical dose in a mouse model [1] [g/kg]	Incidence [1]	Suppression of EAE at 1.5 g/kg [1]	Adverse effect [3]	also measured
COc1ccc(C(=O)c2ccccc2)c(O)c1 [oxybenzone, reference compound]	partially suppress EAE severity; also recorded: little to no significant suppression of EAE; also recorded: fail to suppress EAE; also recorded: slightly suppressed disease progression	no significant change in body weight	–	–	–	–	–	–	–	–
CCCCC(CC)COC(=O)c1ccccc1O (centres unmarked) [octyl salicylate, 2-ethylhexyl salicylate]	dramatically suppress EAE development; also recorded: provide the protection; also recorded: almost completely prevented EAE development	without affecting body weight	2.0 ± 0.8	20 ± 1	18 ± 3	0.5	75% (9/12)	equally active	temporary mild skin irritation	Dose dependence of EAE suppression ([1]; listed as octisalate): dose-dependent suppression of EAE; also recorded: dose dependent suppression of EAE; Suppression of EAE (mean clinical score) by sunscreen ingredients ([1]; listed as Octisalate): moderate suppression but did not reach statistical significance; Suppression of EAE (mean clinical score) by sunscreen ingredients ([1]; listed as octisalate): complete suppression of EAE; also recorded: significantly suppress EAE; Body weight at three doses ([2]; listed as octisalate): increased the body weight; also recorded: significantly different from control
CC(=O)Oc1ccccc1C(=O)O [aspirin, acetylsalicylic acid]	–	–	–	–	–	–	–	–	–	Relationship between aspirin and MS, control vs treated group [4]: without a significant difference between the control and treated group
COc1ccc(C(=O)CC(=O)c2ccc(C(C)(C)C)cc2)cc1 [avobenzone, reference compound]	partially suppress EAE severity; also recorded: little to no significant suppression of EAE; also recorded: fail to suppress EAE; also recorded: slightly suppressed disease progression	no significant change in body weight	–	–	–	–	–	–	–	Suppression of EAE (mean clinical score) by sunscreen ingredients ([1]; listed as Avobenzone): partially suppress EAE severity
CC1CC(OC(=O)c2ccccc2O)CC(C)(C)C1 (centres unmarked) [Homosalate, 3,3,5-trimethylcyclohexyl 2-hydrobenzoate]	significantly suppress EAE	without affecting body weight	1.3 ± 0.0	1 ± 0	22 ± 0	1.5	8% (1/12) *	equally active; also recorded: completely blocked EAE	temporary mild skin irritation	Effectiveness when applied less frequently than each day ([1]; homosalate 1.5 g/kg topically (FIGS. 8C and 8D)): effectiveness diminished; Mean EAE score, applied every day and every 2-day ([1]; homosalate 30 μl or 1.5 g/kg topically (FIGS. 8C and 8D), p<0.05): significantly lower than control; Dose dependence of EAE suppression [1]: dose-dependent suppression of EAE; also recorded: dose dependent suppression of EAE; Suppression of EAE (mean clinical score) by sunscreen ingredients ([1]; listed as homosalate): dramatically suppress EAE development; also recorded: provide the protection; also recorded: dramatically suppressed EAE severity; also recorded: complete suppression of EAE; also recorded: almost completely prevented EAE development; Acute dermal toxicity LD50 [5]: > 5 g/kg; Anti-inflammatory effect [6]: demonstrated; Body weight at three doses [2]: increased the body weight; also recorded: significantly different from control
